In US6470889B1 (B.H.B., L.C., priority 1999, dated 2002):

Test: Empiric porcine aortic contrast enhancement, dynamic CT at fixed mid-abdominal aortic level after i.v. injection
Type: in vivo, pig
Method: In order to test the mathematical solutions, a porcine study was conducted. All animal care and procedures performed were approved by the Institutional Animal Study Committee. […] Each session was separated by at least two days. Two pigs had all their sessions within a week, while the other two pigs had their first two and last sessions delays 4-5 weeks, which results in an increase in their weight to 35-40 kg in their last session. In each session, the pig was anesthetized, intubated, and underwent scanning for three or four sets of images obtained in random order. During scanning, each pig was ventilated with oxygen and low tidal volume to minimize breathing motion artifact. […] Each set of scans were 45-60 minutes apart to minimize the effect of prior contrast administration. All CT scanning was performed with a Somatom Plus-S scanner (Siemens Medical Systems, […].) using a one-second scanning time and a one-second interscan delay. Three types of injection schemes were tested: uniphasic, biphasic, and multiphasic. Biphasic injections were performed by a prior art power injector which was used in routine clinical CT scanning while uniphasic and multiphasic injections were conducted with a power injector which was invented for achieving the required protocols. This power injector was capable of delivering contrast medium in various uniphasic or multiphasic injection algorithms, as is explained in greater detail below. The multiphasic injection rate is determined by an initial injection rate and an exponential decay coefficient, as shown in FIG. 3. […] Most injections were performed with the initial injection rate of 2 mL/s. […] Three differential exponential decay coefficients (0.007, 0.017, 0.026) were tested. […] These were the three smallest discrete increments allowed in the prototype of the inventive power injector. Decay coefficient higher than 0.03 was not used because it was evident that a further increase in the coefficient would deviate further away from uniform vascular enhancements. A uniphasic injection was determined as being equivalent to a zero exponential decay coefficient where the injection rate remains constant at an initial injection rate throughout the injection duration. […] Approximately half of the total contrast volume was injected in each phase of the biphasic injections. […] Attenuation values of the aorta were measured from post-contrast scans (at the same level as the pre-contrast scans) using a circular region of interest (ROI) at the center of the aorta. Contrast enhancement was calculated as the absolute different in attenuation value between the pre- and post-contrast scans. For the data analysis, the injection duration (ID), the magnitude of peak aortic enhancement (PA), and the uniformity of enhancement (the duration of the enhancement achieved with 90% of the peak: 90% DCE) were evaluated. Means and standard deviations were also computed. The results are now explained.

[1] = 25 kg pig, 50 mL of 282 mgI/mL contrast medium, uniphasic 2 mL/sec
[2] = four pigs, 50 mL, 2 mL/s initial injection rate, decay constant 0.017
[3] = four pigs, 70 mL, 2 mL/s initial injection rate, decay constant 0.017

## CNC(=O)c1c(I)c(NC(C)=O)c(I)c(C(=O)O)c1I.CNC[C@H](O)[C@@H](O)[C@H](O)[C@H](O)CO [contrast medium, iothalmate meglumine]
[1]
  magnitude of the peak aortic enhancement (empiric): 250 HU
  time to the peak aortic enhancement (empiric): 26 s
50 mL and 70 mL, 2 mL/s, decay constant 0.017
  pattern of aortic enhancement, multiphasic vs uniphasic injection: more prolonged and uniform vascular enhancement than uniphasic injections
70 mL, 2 mL/s for 17 sec then 1.0 mL/s for 36 sec
  pattern of aortic enhancement, biphasic injection: two enhancement peaks with a valley in between
[2]
  increase of 90% DCE (duration of enhancement achieved with 90% of the peak), multiphasic vs uniphasic injection, mean: 81%
  reduction of peak aortic enhancement (PA), multiphasic vs uniphasic injection, mean: 19%
[3]
  decrease of peak aortic enhancement (PA), multiphasic vs uniphasic injection: 18%
  increase of 90% DCE, multiphasic vs uniphasic injection: 94%
Two pigs (25 kg, 40 kg), compared with decay constants 0.007 and 0.026
  pattern of aortic enhancement, multiphasic exponential injection, decay constant 0.017: more uniform than with other injection protocols
